Non-standard residues stand in square brackets, D forms with d. Residues, ends and D or L forms follow the SMILES beside them. No end group written: not given here. pGlu = O=C1CC[C@@H](C(=O)O)N1

The experiment deals with PBL migration across TNF-α/IFN-γ-stimulated endothelial cells (HDBEC). The conditions noted are these: for IC50: 24 h.

For `C[C@H](NC(=O)CNC(=O)[C@@H]1CCC(=O)N1)C(N)=O` [[PyroGlu]-GA-NH2] ([pGlu]-Gly-Ala-NH2), the IC50 – broadly, the concentration that inhibits the measured activity by half – stood at 0.0032 nM.

For `CC(C)[C@@H](NC(=O)[C@H](N)[C@H](C)O)C(=O)N[C@H](CO)C(N)=O` [tvs-NH2] (H-[dT]-[dV]-[dS]-NH2), it took 0.024 nM to reach half-maximal inhibition (IC50).

Regarding SVTEQGA, the “effect on lymphocyte migration in vitro” value is “full activity”.

Regarding SVTEQGAELSNEER [PEPITEM], the half-maximal inhibitory concentration (IC50) is 0.045 nM.
